{
  "source": "patent US9440982B2",
  "about": "(Eolas Therapeutics, Inc., priority 2012, dated 2016)",
  "data": [
    {"biological_target": "T1, OX1 (Homo sapiens, UniProt O43613)", "T1 construct": "expressed in transfected cells; host or cells: CHO (CHO-OX1, kept under selection antibiotic)", "T1 sequence (O43613 1-425)": "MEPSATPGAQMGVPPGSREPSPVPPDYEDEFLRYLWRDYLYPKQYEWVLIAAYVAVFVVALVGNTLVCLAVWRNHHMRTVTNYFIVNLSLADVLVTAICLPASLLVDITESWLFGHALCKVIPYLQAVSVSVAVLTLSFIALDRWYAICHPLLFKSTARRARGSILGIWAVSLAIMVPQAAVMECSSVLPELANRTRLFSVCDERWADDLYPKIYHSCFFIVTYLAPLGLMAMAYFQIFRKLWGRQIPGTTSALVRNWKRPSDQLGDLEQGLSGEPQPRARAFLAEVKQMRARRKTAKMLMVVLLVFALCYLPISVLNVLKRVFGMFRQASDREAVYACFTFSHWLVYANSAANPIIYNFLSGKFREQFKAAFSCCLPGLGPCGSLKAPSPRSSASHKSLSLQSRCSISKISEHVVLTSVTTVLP", "assay": "Orexin receptor cell-based functional assay, [Ca2+]i by FLIPR, CHO-OX1 cells", "conditions": "CHO-OX1 cells, [Ca2+]i by FLIPR, antagonist dose-range 0.1 nM-10 μM, EC90 of OXA; read-out: OX1", "outline": "(§1)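 CHO cells expressing human OX1 or OX2 loaded with calcium dye plus 2.5 mM probenecid at 37° C (calcium4, 30 min, or calcium6, 2 h), then exposed to compounds (0.1 nM-10 μM) for 30 min. Intracellular Ca2+ measured on FLIPR; antagonist format.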", "units": {"IC50": "nM"}, "values": [
      {"compound": "Cc1nc(C(=O)N2CCC[C@@H](C)[C@H]2CNc2ccc(C(F)(F)F)cn2)c(-c2cccc(F)c2)s1", "note": "[Example A109, (5-(3-Fluorophenyl)-2-methylthiazol-4-yl)((2S,3R)-3-methyl-2-(((5-(trifluoromethyl)pyridin-2-yl)amino)methyl)piperidin-1-yl)methanone]", "IC50": "< 10"},
      {"compound": "Cc1ccc(-n2cnc(C(F)(F)F)n2)c(C(=O)N2CCC[C@@H](C)[C@H]2CNc2ccc(C#N)cn2)c1", "note": "[Example A51, 6-((((2S,3R)-3-Methyl-1-(5-methyl-2-(3-(trifluoromethyl)-1H-1,2,4-triazol-1-yl)benzoyl)piperidin-2-yl)methyl)amino)nicotinonitrile]", "IC50": "> 1000"},
      {"compound": "C[C@@H]1CCCN(C(=O)c2ccc(F)cc2-n2nccn2)[C@@H]1CNc1ncc(C(F)(F)F)cn1", "note": "[Example A251, (4-Fluoro-2-(2H-1,2,3-triazol-2-yl)phenyl)((2S,3R)-3-methyl-2-(((5-(trifluoromethyl)pyrimidin-2-yl)amino)methyl)piperidin-1-yl)methanone]", "IC50": 58},
      {"compound": "Cc1ccc(-n2cnc(C(F)(F)F)n2)c(C(=O)N2CCC[C@@H](C)[C@H]2CNc2nc3cc(Cl)ccc3o2)c1", "note": "[Example A64, ((2S,3R)-2-(((5-Chlorobenzo[d]oxazol-2-yl)amino)methyl)-3-methylpiperidin-1-yl)(5-methyl-2-(3-(trifluoromethyl)-1H-1,2,4-triazol-1-yl)phenyl)methanone]", "IC50": "> 1000"},
      {"compound": "Cc1ccc(-n2nccn2)c(C(=O)N2CCC[C@@H](C)[C@H]2CNc2nc3ccccc3o2)c1", "note": "[Example A180, ((2S,3R)-2-((Benzo[d]oxazol-2-ylamino)methyl)-3-methylpiperidin-1-yl)(5-methyl-2-(2H-1,2,3-triazol-2-yl)phenyl)methanone]", "IC50": 4}
    ]},
    {"biological_target": "T1, OX1", "assay": "Orexin receptor cell-based functional assay, [Ca2+]i by FLIPR, CHO-OX1 cells", "conditions": "Table 2; CHO-OX1 cells, EC90 of OXA; read-out: IC50 Bioactivity OX1", "outline": "as §1", "units": {"IC50": "nM"}, "values": [
      {"compound": "COc1c(F)cccc1C(=O)N1CCC[C@@H](C)[C@H]1CNC(=O)c1cccc2cccnc12", "note": "(racemic) [Example 10, rac-cis-N-((1-(3-Fluoro-2-methoxybenzoyl)-3-methylpiperidin-2-yl)methyl)quinoline-8-carboxamide]", "IC50": "< 3000"},
      {"compound": "Cc1nc(C(=O)N2CCC[C@@H](C)[C@H]2COc2nc3ccccc3o2)c(-c2ccc(F)cc2)s1", "note": "(racemic) [Example 80, rac-cis-(2-((Benzo[d]oxazol-2-yloxy)methyl)-3-methylpiperidin-1-yl)(5-(4-fluorophenyl)-2-methylthiazol-4-yl)methanone]", "IC50": 140},
      {"compound": "Cc1ccc(-c2ccc(C)nc2)c(C(=O)N2CCC[C@@H](C)[C@H]2CNc2ccc(C(F)(F)F)cn2)c1", "note": "(racemic) [Example 105, rac-cis-(3-Methyl-2-(((5-(trifluoromethyl)pyridin-2-yl)amino)methyl)piperidin-1-yl)(5-methyl-2-(6-methylpyridin-3-yl)phenyl)methanone]", "IC50": 109},
      {"compound": "CCc1cnc(NC[C@@H]2[C@H](CC)CCCN2C(=O)c2nc(C)sc2-c2ccc(F)cc2)nc1", "note": "(racemic) [Example 78, rac-cis-(3-Ethyl-2-(((5-ethylpyrimidin-2-yl)amino)methyl)piperidin-1-yl)(5-(4-fluorophenyl)-2-methylthiazol-4-yl)methanone]", "IC50": 2},
      {"compound": "CO[C@@H]1CCCN(C(=O)c2nc(C)sc2-c2ccc(F)cc2)[C@@H]1CNc1ncc(Cl)cn1", "note": "(racemic) [Example 93, rac-cis-(2-(((5-Chloropyrimidin-2-yl)amino)methyl)-3-methoxypiperidin-1-yl)(5-(4-fluorophenyl)-2-methylthiazol-4-yl)methanone]", "IC50": 100},
      {"compound": "Cc1nc(C(=O)N2C[C@H]3CCC[C@H]3C2COc2ccc(C(F)(F)F)cn2)c(-c2ccc(F)cc2)s1", "note": "(mixture of isomers) [Example 101, (5-(4-Fluorophenyl)-2-methylthiazol-4-yl)(1-(((5-(trifluoromethyl)pyridin-2-yl)oxy)methyl)hexahydrocyclopenta[c]pyrrol-2(1H)-yl)methanone]", "IC50": 3000},
      {"compound": "CC1CCCC(CCOc2ccccc2)N1C(=O)c1ccccc1-c1ccccc1", "note": "(racemic) [Example 31, rac-Biphenyl-2-yl(2-methyl-6-(2-phenoxyethyl)piperidin-1-yl)methanone]", "IC50": 10},
      {"compound": "Cc1ccc(-n2cncn2)c(C(=O)N2CCC[C@@H](C)[C@H]2CNc2ccc(C(F)(F)F)cn2)c1", "note": "(racemic) [Example 117, rac-cis-(3-Methyl-2-(((5-(trifluoromethyl)pyridin-2-yl)amino)methyl)piperidin-1-yl)(5-methyl-2-(1H-1,2,4-triazol-1-yl)phenyl)methanone]", "IC50": 38},
      {"compound": "Cc1nc(-c2ccccc2)c(C(=O)N2CC3CCCCC3C2CNC(=O)c2cccc3cccnc23)s1", "note": "(single isomer, unassigned) [Example 65]", "IC50": "> 2000"},
      {"compound": "Cc1nc(-c2ccccc2)c(C(=O)N2CC(NCCO)CCC2CNC(=O)c2cccc3cccnc23)s1", "note": "(racemic) [Example 47, N-((5-(2-Hydroxyethylamino)-1-(2-methyl-4-phenylthiazole-5-carbonyl)piperidin-2-yl)methyl)quinoline-8-carboxamide]", "IC50": "< 10000"},
      {"compound": "Cc1cc2c(C(=O)NCC3CCCC(C)N3C(=O)c3nc(C)sc3-c3ccc(F)cc3)cccc2o1", "note": "(racemic) [Example 61, rac-N-((1-(5-(4-Fluorophenyl)-2-methylthiazole-4-carbonyl)-6-methylpiperidin-2-yl)methyl)-2-methylbenzofuran-4-carboxamide]", "IC50": 7},
      {"compound": "COc1c(F)cccc1C(=O)NCC1CCCC(C)N1C(=O)c1nc(C)sc1-c1ccc(F)cc1", "note": "(racemic) [Example 60, rac-3-Fluoro-N-((1-(5-(4-fluorophenyl)-2-methylthiazole-4-carbonyl)-6-methylpiperidin-2-yl)methyl)-2-methoxybenzamide]", "IC50": 1},
      {"compound": "Cc1nc(C(=O)N2CCC[C@@H](C)[C@H]2CNc2ccc(C#N)cn2)c(-c2ccc(F)cc2)s1", "note": "(racemic) [Example 91, rac-cis-6-(((1-(5-(4-Fluorophenyl)-2-methylthiazole-4-carbonyl)-3-methylpiperidin-2-yl)methyl)amino)nicotinonitrile]", "IC50": 140},
      {"compound": "O=C(NC[C@@H]1C[C@@H](F)CN1C(=O)c1ccccc1-c1ccccc1)c1cccc2cccnc12", "note": "[Example 128, N-(((2S,4R)-1-(Biphenylcarbonyl)-4-fluoropyrrolidin-2-yl)methyl)quinoline-8-carboxamide]", "IC50": 35},
      {"compound": "Cc1nc(C(=O)N2CC3CCCCC3C2CNC(=O)c2cccc3occc23)c(-c2ccccc2)s1", "note": "(single isomer, unassigned) [Example 71]", "IC50": 40},
      {"compound": "NC1CCC(CNC(=O)c2cccc3cccnc23)N(C(=O)c2ccccc2-c2ccccc2)C1", "note": "(racemic) [Example 39, N-((5-Amino-1-(biphenylcarbonyl)piperidin-2-yl)methyl)quinoline-8-carboxamide]", "IC50": 30},
      {"compound": "CNC1CCC(CNC(=O)c2cccc3cccnc23)N(C(=O)c2sc(C)nc2-c2ccccc2)C1", "note": "(racemic) [Example 45, N-((1-(2-Methyl-4-phenylthiazole-5-carbonyl)-5-(methylamino)piperidin-2-yl)methyl)quinoline-8-carboxamide]", "IC50": "< 10000"},
      {"compound": "Cc1nc(-c2ccccc2)c(C(=O)N2CC(F)CCC2CNC(=O)c2cccc3cccnc23)s1", "note": "(racemic) [Example 35, N-((5-Fluoro-1-(2-methyl-4-phenylthiazole-5-carbonyl)piperidin-2-yl)methyl)quinoline-8-carboxamide]", "IC50": 2},
      {"compound": "C[C@@H]1CCCN(C(=O)c2ccnn2-c2ccccc2)[C@@H]1CNc1ccc(C(F)(F)F)cn1", "note": "(racemic) [Example 119, rac-cis-(3-Methyl-2-(((5-(trifluoromethyl)pyridin-2-yl)amino)methyl)piperidin-1-yl)(1-phenyl-1H-pyrazol-5-yl)methanone]", "IC50": 400},
      {"compound": "Cc1ccc(-c2ccnn2C)c(C(=O)N2CCC[C@@H](C)[C@H]2CNc2ccc(C(F)(F)F)cn2)c1", "note": "(racemic) [Example 108, rac-cis-(3-Methyl-2-(((5-(trifluoromethyl)pyridin-2-yl)amino)methyl)piperidin-1-yl)(5-methyl-2-(1-methyl-1H-pyrazol-5-yl)phenyl)methanone]", "IC50": 13},
      {"compound": "CC(=O)O[C@H]1C[C@@H](CNC(=O)c2cccc3cccnc23)N(C(=O)c2ccccc2-c2ccccc2)C1", "note": "[Example 131, (3S,5S)-1-([1,1′-Biphenyl]-2-carbonyl)-5-((quinoline-8-carboxamido)methyl)pyrrolidin-3-yl acetate]", "IC50": 53},
      {"compound": "Cc1ccc(-c2cccnc2)c(C(=O)N2CCC[C@@H](C)[C@H]2CNc2ccc(C(F)(F)F)cn2)c1", "note": "(racemic) [Example 104, rac-cis-(3-Methyl-2-(((5-(trifluoromethyl)pyridin-2-yl)amino)methyl)piperidin-1-yl) (5-methyl-2-(pyridin-3-yl)phenyl)methanone]", "IC50": 1},
      {"compound": "O=C(NCC1CCC(F)CN1C(=O)c1ccccc1-c1ccccc1)c1cccc2cccnc12", "note": "(single isomer, unassigned) [Example 38, N-((1-(Biphenylcarbonyl)-5-fluoropiperidin-2-yl)methyl)quinoline-8-carboxamide]", "IC50": 4},
      {"compound": "Cc1nc(C(=O)N2CCC[C@H](C)[C@H]2CNc2ncc(Cl)cn2)c(-c2ccc(F)cc2)s1", "note": "(racemic) [Example 96, rac-trans-(2-(((5-Chloropyrimidin-2-yl)amino)methyl)-3-methylpiperidin-1-yl)(5-(4-fluorophenyl)-2-methylthiazol-4-yl)methanone]", "IC50": 18}
    ]}
  ]
}
